Experimental findings from ChEMBL document CHEMBL4507276 (2021) are described below.

The target of data set [1] is Sigma non-opioid intracellular receptor 1 (Homo sapiens) (UniProt Q99720). The note with it: Compound concentration 10.0 uM.
Data set [2] deals with Sodium-dependent serotonin transporter (Homo sapiens) (UniProt P31645). In words: 5HTTRANS/H Cerep selectivity data (BI). As to conditions: Compound concentration 20.0 uM; call rule not given here.
The target in data set [3] is L-type Ca2+ channel (verapamil site), Cav1.2 alpha-1C (Rattus norvegicus, UniProt P22002). In words: CA+/VERSI/R Cerep selectivity data (BI). More on the design: mode of action inhibitor. As to conditions: rat brain, probe [3H](-)D888, compound concentration 20 uM, read-out: % Ctrl.
Data set [4] deals with Catechol O-methyltransferase (Sus scrofa) (UniProt Q99028). Nature of the data set: CATOMETHTRAN Cerep selectivity data (BI). As to conditions: Compound concentration 20.0 uM.
The target of data set [5] is Sodium-dependent dopamine transporter (Homo sapiens, UniProt Q01959). In words: DATRANS/HUM Cerep selectivity data (BI). As to conditions: Compound concentration 20.0 uM.
For data set [6], the target named is Glycine receptor subunit alpha-1 (Rattus norvegicus) (UniProt P07727). Nature of the data set: GLYSTRYANTAG Cerep selectivity data (BI). As to conditions: filed as antagonist, Compound concentration 20.0 uM.
For data set [7], the target named is Melanocortin receptor 4 (Homo sapiens) (UniProt P32245). Nature of the data set: MC4/HU Cerep selectivity data (BI). As to conditions: Compound concentration 20.0 uM.
Data set [8] concerns the target 72 kDa type IV collagenase (Homo sapiens) (UniProt P08253). In words: MMP-2 (H) Cerep selectivity data (BI). The note with it: Compound concentration 20.0 uM.
Data set [9] has as its target Motilin receptor (Homo sapiens) (UniProt O43193). Nature of the data set: MOTILINH_AGON Cerep selectivity data (BI). As to conditions: filed as agonist, Compound concentration 20.0 uM.
Data set [10] addresses Nicotinic acetylcholine receptor alpha-1/beta-1 (Homo sapiens) (UniProt P02708+P11230). In words: NMUSCLEH_ANTAG Cerep selectivity data (BI). The data set is classed as protein-complex assay. The note with it: filed as antagonist, Compound concentration 20.0 uM.
The target in data set [11] is Adenosine receptor A3 (Homo sapiens) (UniProt P0DMS8). In words: A3/H Eurofins-Panlabs selectivity data (BI). As to conditions: Compound concentration 10.0 uM.
The target in data set [12] is Cyclin-dependent kinase 5/CDK5 activator 1 (Homo sapiens) (UniProt Q00535+Q15078). Nature of the data set: CDK5/P35 Invitrogen selectivity data (BI). The data set is classed as protein-complex assay. The note with it: Compound concentration 3.0 uM.
Data set [13] has as its system Epidermal growth factor receptor (Homo sapiens), P00533 [T790M]. In words: EGFR T790M Invitrogen selectivity data (BI). As to conditions: Compound concentration 3.0 uM.
The target in data set [14] is T1, Serine/threonine-protein kinase haspin (Homo sapiens) (UniProt Q8TF76).
T1 sequence (whole entry): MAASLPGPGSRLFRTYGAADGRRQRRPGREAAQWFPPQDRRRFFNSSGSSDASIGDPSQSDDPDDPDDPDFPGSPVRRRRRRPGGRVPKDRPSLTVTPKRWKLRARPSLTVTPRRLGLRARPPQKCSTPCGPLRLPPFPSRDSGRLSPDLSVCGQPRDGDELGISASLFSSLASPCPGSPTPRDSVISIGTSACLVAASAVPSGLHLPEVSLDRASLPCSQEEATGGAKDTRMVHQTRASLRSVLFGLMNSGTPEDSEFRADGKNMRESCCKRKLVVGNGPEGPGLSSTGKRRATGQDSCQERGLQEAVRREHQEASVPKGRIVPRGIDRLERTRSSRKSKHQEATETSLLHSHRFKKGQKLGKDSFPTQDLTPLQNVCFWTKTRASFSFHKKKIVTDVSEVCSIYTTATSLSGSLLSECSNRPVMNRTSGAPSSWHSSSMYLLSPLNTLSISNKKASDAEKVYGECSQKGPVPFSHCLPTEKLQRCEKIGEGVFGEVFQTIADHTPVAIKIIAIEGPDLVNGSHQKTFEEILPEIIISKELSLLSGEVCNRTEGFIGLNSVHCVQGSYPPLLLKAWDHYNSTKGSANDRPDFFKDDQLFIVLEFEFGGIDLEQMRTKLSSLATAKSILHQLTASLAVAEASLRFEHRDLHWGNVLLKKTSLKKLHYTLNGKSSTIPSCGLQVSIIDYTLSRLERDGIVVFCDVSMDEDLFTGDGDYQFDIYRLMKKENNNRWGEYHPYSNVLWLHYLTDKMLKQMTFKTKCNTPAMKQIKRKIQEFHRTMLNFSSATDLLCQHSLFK
In words: GSG2 Invitrogen selectivity data (BI). As to conditions: Compound concentration 3.0 uM.

The target in data set [15] is T2, Mitogen-activated protein kinase kinase kinase 7 (Homo sapiens) (UniProt O43318).
T2 sequence (whole entry): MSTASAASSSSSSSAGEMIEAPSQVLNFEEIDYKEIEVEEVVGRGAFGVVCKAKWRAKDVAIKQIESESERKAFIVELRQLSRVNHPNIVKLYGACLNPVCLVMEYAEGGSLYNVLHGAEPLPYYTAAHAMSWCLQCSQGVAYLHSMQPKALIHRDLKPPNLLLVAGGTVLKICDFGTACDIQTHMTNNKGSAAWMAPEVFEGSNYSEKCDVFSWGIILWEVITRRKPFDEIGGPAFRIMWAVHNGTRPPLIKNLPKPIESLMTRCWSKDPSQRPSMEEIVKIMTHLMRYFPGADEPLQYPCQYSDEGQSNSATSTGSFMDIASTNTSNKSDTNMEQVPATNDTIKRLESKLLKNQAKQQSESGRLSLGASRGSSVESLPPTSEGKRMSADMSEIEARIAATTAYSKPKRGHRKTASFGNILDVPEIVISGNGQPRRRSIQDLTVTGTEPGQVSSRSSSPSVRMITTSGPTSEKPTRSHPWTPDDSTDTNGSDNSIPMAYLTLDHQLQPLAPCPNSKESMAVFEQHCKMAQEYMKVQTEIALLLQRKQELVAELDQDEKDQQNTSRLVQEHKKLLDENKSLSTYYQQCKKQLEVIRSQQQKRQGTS
In words: MAP3K7_K7IP1 Invitrogen selectivity data (BI). As to conditions: Compound concentration 3.0 uM.

The target in data set [16] is T3, Mitogen-activated protein kinase 12 (Homo sapiens) (UniProt P53778).
T3 sequence (whole entry): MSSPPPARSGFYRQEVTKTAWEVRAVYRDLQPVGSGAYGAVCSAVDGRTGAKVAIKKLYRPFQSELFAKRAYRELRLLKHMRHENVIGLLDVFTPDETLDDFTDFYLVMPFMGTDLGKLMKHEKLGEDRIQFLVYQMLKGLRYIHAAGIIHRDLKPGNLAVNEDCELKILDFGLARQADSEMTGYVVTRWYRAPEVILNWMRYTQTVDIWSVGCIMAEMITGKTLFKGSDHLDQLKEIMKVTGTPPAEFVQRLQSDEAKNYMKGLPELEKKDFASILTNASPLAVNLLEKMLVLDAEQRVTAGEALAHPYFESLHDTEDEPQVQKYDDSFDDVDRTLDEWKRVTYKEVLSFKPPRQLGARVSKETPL
In words: MAPK12 Invitrogen selectivity data (BI). As to conditions: Compound concentration 3.0 uM.

In data set [17] the target is Myosin light chain kinase 2, skeletal/cardiac muscle (Homo sapiens) (UniProt Q9H1R3). In words: MYLK2 Invitrogen selectivity data (BI). As to conditions: Compound concentration 3.0 uM.
For data set [18], the target named is Serine/threonine-protein kinase PLK1 (Homo sapiens) (UniProt P53350). In words: PLK1 Invitrogen selectivity data (BI). The note with it: Compound concentration 3.0 uM.
Data set [19] has as its target Serine/threonine-protein kinase 24 (Homo sapiens) (UniProt Q9Y6E0). In words: STK24 Invitrogen selectivity data (BI). The note with it: Compound concentration 3.0 uM.
Data set [20] concerns the target Tyrosine-protein kinase SYK (Homo sapiens) (UniProt P43405). In words: SYK Invitrogen selectivity data (BI). As to conditions: Compound concentration 3.0 uM.
Data set [21] addresses Wee1-like protein kinase (Homo sapiens) (UniProt P30291). In words: WEE1 Invitrogen selectivity data (BI). The note with it: Compound concentration 3.0 uM.

Structures are written as SMILES.

Catechol O-methyltransferase (Sus scrofa), sequence (Q99028 whole entry): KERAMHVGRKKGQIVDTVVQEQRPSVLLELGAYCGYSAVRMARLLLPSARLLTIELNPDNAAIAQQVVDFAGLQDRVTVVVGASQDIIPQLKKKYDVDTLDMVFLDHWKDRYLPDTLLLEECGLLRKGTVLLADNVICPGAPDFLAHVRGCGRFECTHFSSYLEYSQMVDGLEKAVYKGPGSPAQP
Cyclin-dependent kinase 5/CDK5 activator 1 (Homo sapiens), sequence (Q00535 whole entry): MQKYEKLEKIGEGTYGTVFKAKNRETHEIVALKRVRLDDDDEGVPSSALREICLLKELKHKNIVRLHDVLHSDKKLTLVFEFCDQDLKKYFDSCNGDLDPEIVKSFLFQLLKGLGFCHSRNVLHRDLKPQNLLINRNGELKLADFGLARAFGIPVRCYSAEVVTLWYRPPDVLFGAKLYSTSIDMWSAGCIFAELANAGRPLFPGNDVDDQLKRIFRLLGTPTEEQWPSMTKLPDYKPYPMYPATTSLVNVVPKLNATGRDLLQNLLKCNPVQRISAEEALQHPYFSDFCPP
Cyclin-dependent kinase 5/CDK5 activator 1 (Homo sapiens), sequence (Q15078 99-307 partner limits assumed): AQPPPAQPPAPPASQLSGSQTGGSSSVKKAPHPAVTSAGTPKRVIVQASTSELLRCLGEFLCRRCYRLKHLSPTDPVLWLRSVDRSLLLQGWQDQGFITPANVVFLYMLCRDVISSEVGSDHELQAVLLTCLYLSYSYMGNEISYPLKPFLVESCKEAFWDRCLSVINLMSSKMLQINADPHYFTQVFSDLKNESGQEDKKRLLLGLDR
Myosin light chain kinase 2, skeletal/cardiac muscle (Homo sapiens), sequence (Q9H1R3 whole entry): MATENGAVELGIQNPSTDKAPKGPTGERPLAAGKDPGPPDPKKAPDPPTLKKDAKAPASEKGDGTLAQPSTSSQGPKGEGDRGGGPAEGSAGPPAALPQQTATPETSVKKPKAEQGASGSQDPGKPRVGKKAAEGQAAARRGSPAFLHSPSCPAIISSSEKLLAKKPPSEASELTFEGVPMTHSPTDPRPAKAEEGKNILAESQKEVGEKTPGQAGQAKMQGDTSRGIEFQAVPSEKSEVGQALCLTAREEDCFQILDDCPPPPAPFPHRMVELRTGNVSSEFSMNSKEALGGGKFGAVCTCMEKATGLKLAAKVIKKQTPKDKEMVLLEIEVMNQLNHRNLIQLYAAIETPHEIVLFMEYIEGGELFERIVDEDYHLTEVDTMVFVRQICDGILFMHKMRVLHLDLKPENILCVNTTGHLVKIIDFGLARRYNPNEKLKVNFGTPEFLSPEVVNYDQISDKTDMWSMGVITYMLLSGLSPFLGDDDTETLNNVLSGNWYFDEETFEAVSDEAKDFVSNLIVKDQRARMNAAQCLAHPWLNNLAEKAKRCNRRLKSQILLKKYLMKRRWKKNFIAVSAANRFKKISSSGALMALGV
Wee1-like protein kinase (Homo sapiens), sequence (P30291 whole entry, looked up): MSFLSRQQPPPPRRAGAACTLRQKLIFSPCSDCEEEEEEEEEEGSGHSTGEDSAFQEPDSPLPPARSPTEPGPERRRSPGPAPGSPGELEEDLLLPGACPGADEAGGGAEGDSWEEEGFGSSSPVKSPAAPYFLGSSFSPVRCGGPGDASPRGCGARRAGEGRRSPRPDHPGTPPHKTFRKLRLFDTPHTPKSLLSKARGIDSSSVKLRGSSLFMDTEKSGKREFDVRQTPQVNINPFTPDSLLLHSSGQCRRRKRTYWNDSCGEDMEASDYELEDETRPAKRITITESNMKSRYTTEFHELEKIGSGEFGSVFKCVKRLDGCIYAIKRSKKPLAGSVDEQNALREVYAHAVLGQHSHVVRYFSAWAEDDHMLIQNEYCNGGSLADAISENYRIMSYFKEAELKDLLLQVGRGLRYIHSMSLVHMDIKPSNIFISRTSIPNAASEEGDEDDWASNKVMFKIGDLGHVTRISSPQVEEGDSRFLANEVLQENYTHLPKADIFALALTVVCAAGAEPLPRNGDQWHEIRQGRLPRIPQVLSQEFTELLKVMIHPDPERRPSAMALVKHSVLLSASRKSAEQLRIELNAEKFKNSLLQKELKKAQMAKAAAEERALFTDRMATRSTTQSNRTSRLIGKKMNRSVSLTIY
Serine/threonine-protein kinase PLK1 (Homo sapiens), sequence (P53350 whole entry): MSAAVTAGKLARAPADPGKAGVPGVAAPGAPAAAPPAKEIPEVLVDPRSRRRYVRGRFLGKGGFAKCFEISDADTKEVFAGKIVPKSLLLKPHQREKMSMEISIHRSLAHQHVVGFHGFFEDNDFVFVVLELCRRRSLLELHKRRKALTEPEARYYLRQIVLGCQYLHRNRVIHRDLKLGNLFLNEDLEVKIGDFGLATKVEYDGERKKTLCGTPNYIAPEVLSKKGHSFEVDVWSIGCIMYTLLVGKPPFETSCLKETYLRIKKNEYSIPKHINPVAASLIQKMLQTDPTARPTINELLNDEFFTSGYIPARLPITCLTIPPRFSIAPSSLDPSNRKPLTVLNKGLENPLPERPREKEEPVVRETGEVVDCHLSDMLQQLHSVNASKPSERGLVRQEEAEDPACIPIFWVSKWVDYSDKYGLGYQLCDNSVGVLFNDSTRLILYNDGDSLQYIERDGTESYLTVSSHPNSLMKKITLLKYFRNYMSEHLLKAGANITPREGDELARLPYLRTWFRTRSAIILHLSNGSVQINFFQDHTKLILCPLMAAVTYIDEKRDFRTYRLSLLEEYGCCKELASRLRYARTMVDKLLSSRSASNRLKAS
Sodium-dependent dopamine transporter, sequence (Q01959 whole entry): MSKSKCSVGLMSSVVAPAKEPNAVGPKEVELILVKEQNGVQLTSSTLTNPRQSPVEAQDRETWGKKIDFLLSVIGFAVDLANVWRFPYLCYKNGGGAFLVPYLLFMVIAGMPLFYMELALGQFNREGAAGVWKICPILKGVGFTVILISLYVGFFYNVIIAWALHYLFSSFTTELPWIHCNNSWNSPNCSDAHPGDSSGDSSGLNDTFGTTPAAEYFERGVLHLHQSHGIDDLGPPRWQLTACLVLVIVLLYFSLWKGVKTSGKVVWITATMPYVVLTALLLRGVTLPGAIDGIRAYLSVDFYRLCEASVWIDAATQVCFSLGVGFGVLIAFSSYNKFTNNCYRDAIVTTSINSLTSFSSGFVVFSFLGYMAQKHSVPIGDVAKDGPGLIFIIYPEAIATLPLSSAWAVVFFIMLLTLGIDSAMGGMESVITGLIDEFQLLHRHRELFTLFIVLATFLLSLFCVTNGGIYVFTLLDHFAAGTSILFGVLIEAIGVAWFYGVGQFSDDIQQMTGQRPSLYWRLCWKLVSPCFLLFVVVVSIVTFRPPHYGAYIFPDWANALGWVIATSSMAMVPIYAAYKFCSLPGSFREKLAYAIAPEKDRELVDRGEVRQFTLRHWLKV
Glycine receptor subunit alpha-1 (Rattus norvegicus), sequence (P07727 whole entry): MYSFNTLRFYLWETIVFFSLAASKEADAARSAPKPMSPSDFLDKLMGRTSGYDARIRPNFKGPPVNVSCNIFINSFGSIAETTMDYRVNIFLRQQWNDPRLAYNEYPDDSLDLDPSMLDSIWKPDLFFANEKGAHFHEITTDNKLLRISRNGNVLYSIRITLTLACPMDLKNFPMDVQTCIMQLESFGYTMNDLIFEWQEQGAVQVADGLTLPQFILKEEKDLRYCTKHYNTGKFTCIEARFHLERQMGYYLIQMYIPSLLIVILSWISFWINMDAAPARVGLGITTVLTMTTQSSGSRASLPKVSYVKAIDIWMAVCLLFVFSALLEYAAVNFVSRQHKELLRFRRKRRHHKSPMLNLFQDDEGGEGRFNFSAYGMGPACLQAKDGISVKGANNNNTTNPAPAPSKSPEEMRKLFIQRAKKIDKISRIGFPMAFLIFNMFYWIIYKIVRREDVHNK
Sodium-dependent serotonin transporter (Homo sapiens), sequence (P31645 whole entry, looked up): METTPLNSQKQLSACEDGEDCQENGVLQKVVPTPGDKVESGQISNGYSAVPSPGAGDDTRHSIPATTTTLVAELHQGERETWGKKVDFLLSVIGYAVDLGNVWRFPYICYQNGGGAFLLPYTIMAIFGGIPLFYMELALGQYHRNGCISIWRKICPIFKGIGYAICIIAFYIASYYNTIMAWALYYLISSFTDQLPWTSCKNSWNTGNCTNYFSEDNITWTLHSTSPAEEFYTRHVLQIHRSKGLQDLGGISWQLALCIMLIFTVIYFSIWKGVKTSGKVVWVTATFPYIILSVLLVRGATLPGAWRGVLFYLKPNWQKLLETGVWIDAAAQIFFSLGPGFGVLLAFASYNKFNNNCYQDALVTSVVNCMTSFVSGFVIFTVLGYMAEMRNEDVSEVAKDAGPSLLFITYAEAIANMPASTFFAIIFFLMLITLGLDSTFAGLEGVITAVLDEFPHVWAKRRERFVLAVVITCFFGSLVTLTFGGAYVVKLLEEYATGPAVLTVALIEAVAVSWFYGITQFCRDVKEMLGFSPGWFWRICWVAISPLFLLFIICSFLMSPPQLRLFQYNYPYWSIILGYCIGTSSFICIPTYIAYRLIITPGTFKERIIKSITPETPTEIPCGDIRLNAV
Adenosine receptor A3 (Homo sapiens), sequence (P0DMS8 whole entry): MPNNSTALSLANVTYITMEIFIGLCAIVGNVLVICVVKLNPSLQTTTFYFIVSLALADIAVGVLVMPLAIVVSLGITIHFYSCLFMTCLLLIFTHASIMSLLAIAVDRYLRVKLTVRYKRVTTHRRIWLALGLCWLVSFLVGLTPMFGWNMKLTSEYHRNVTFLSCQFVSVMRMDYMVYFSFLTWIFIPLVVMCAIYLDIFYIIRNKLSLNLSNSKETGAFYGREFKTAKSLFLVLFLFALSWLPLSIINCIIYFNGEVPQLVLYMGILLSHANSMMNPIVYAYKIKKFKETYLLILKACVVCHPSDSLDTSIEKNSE
Sigma non-opioid intracellular receptor 1 (Homo sapiens), sequence (Q99720 whole entry): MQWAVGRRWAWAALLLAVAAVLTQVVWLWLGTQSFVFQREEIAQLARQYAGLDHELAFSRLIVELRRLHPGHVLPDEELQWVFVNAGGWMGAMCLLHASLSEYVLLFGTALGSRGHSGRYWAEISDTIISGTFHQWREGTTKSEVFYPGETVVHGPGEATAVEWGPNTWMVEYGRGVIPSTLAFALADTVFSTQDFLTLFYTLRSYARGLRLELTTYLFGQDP

As a reminder, the inhibition is the drop in the measured response relative to a control, in per cent. In the case of `CN(C)C(=O)Cn1cc(-c2nc(C3(c4ccc(-c5cnc(N)nc5)cc4)CC3)no2)cn1` [BI 0153], the inhibition in [1] was -4.19%.

Regarding `CN(C)C(=O)Cn1cc(-c2nc([C@@](C)(c3ccc(-c4cnc(N)nc4)cc3)C3CC3)no2)cn1` [BI 665915], the residual activity in data set [2] is 103%; in [4], 99%; in data set [5], 87%; in data set [6], 118%; in data set [7], 109%; in data set [8], 96%. Moreover, the residual activity in [9] is 109%; in data set [10], 120%; in data set [11], 88%; in data set [12], 100%; in [13], 104%; in data set [14], 100%. The residual activity was 87% in [15]; 91.5% in data set [16]; 89.5% in data set [17]; 97% in data set [18]; 100% in [19]; 90% in data set [20]. In addition, the residual activity in data set [21] was 100%. Moreover, in data set [3], the activity at 20 µM was 90% (not active).
